From PubChem BioAssay (NCI)
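Values below derive from 48-hour exposures of cells grown in 96-well plates, with endpoints linearly interpolated between the two concentrations bracketing the appropriate inhibition level. Abbreviation: GI50, concentration required for 50% inhibition of growth. TGI: total growth inhibition.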

Experiments:
Test in all cases: DTP human tumour cell line panel, 48 h
786-0 renal = tested on: 786-0 renal
A498 renal = tested on: A498 renal
A549 NSCLC = tested on: A549 NSCLC
ACHN renal = tested on: ACHN renal
BT-549 breast = tested on: BT-549 breast
CCRF-CEM leukemia = tested on: CCRF-CEM leukemia
COLO 205 colon = tested on: COLO 205 colon
DU-145 prostate = tested on: DU-145 prostate
EKVX NSCLC = tested on: EKVX NSCLC
HCC-2998 colon = tested on: HCC-2998 colon
HCT-116 colon = tested on: HCT-116 colon
HCT-15 colon = tested on: HCT-15 colon
HL-60(TB) leukemia = tested on: HL-60(TB) leukemia
HOP-62 NSCLC = tested on: HOP-62 NSCLC
HOP-92 NSCLC = tested on: HOP-92 NSCLC
HS 578T breast = tested on: HS 578T breast
HT29 colon = tested on: HT29 colon
IGROV1 ovarian = tested on: IGROV1 ovarian
KM12 colon = tested on: KM12 colon
LOX IMVI melanoma = tested on: LOX IMVI melanoma
M14 melanoma = tested on: M14 melanoma
MALME-3M melanoma = tested on: MALME-3M melanoma
MCF7 breast = tested on: MCF7 breast
MDA-MB-231 breast = tested on: MDA-MB-231 breast
MDA-MB-435 = tested on: MDA-MB-435
MOLT-4 leukemia = tested on: MOLT-4 leukemia
NCI-H226 lung = tested on: NCI-H226 lung
NCI-H23 lung = tested on: NCI-H23 lung

In the case of `CCCCCCCCCCCCCCCCCCNCc1ccc(Cl)cc1`, the GI50 (786-0 renal) is reported as 8.61 µM, the TGI (786-0 renal) is reported as 25.1 µM and the GI50 (A498 renal) is reported as 14 µM. It also gave a TGI (A498 renal) of 31.9 µM, a GI50 (A549 NSCLC) of 2.52 µM and a TGI (A549 NSCLC) of 5.65 µM. It also gave a GI50 (ACHN renal) of 2.15 µM, a TGI (ACHN renal) of 5.54 µM and a GI50 (BT-549 breast) of 17.3 µM. The TGI (BT-549 breast) was 42.2 µM, the GI50 (CCRF-CEM leukemia) was 2.69 µM and the TGI (CCRF-CEM leukemia) was 8.66 µM. The GI50 (COLO 205 colon) was 1.96 µM, the TGI (COLO 205 colon) was 4 µM and the GI50 (DU-145 prostate) was 2.06 µM. It also gave a TGI (DU-145 prostate) of 4.44 µM, a GI50 (EKVX NSCLC) of 3.84 µM and a TGI (EKVX NSCLC) of 18.7 µM. The GI50 (HCC-2998 colon) was 4.58 µM, the TGI (HCC-2998 colon) was 18.9 µM and the GI50 (HCT-116 colon) was 3.03 µM. The TGI (HCT-116 colon) was 11.7 µM, the GI50 (HCT-15 colon) was 1.93 µM and the TGI (HCT-15 colon) was 4.71 µM. The GI50 (HL-60(TB) leukemia) was 1.55 µM, the TGI (HL-60(TB) leukemia) was 3.94 µM and the GI50 (HOP-62 NSCLC) was 3.17 µM. It also gave a TGI (HOP-62 NSCLC) of 12.8 µM, a GI50 (HOP-92 NSCLC) of 1.83 µM and a TGI (HOP-92 NSCLC) of 5.45 µM. It also gave a GI50 (HS 578T breast) of 7.97 µM, a TGI (HS 578T breast) of 30.4 µM and a GI50 (HT29 colon) of 1.73 µM. The TGI (HT29 colon) was 3.46 µM, the GI50 (IGROV1 ovarian) was 1.91 µM and the TGI (IGROV1 ovarian) was 5.24 µM. It also gave a GI50 (KM12 colon) of 2.5 µM, a TGI (KM12 colon) of 6.54 µM and a GI50 (LOX IMVI melanoma) of 2.04 µM. It also gave a TGI (LOX IMVI melanoma) of 4.92 µM, a GI50 (M14 melanoma) of 2.28 µM and a TGI (M14 melanoma) of 7.04 µM. For the same molecule, the GI50 (MALME-3M melanoma) was 7.37 µM, the TGI (MALME-3M melanoma) was 22.6 µM and the GI50 (MCF7 breast) was 2.93 µM. For the same molecule, the TGI (MCF7 breast) was 11.5 µM, the GI50 (MDA-MB-231 breast) was 1.84 µM and the TGI (MDA-MB-231 breast) was 4.3 µM. It also gave a GI50 (MDA-MB-435) of 3.45 µM, a TGI (MDA-MB-435) of 15.6 µM and a GI50 (MOLT-4 leukemia) of 1.99 µM. For the same molecule, the TGI (MOLT-4 leukemia) was 4.55 µM, the GI50 (NCI-H226 lung) was 3.7 µM and the TGI (NCI-H226 lung) was 19.2 µM. For the same molecule, the GI50 (NCI-H23 lung) was 3.07 µM and the TGI (NCI-H23 lung) was 12 µM.
